Measured values as given in patent publication US20240415914A1, “Water Dispersible Cannabinoid Compositions” (priority 2021, published 2024).
Where two headings read alike, the source gives them in different places.

Tests used:
[1] = format: physicochemical; conditions: stored at room temperature (21-25° C.)
Method: At each time period, 0.05 g of powder was dissolved in 10 ml-15 of ethanol, diluted to fall within the analytical range, and injected into the LCMSMS for analysis.

[2] = Stability of cannabinoid and Vitamin E components of Beverage 2 (AB Red) stored at 8° C. and 21-25° C., LCMSMS over 570 days
Method: The LCMSMS was calibrated for 0-50 ng/ml cannabinoids with the same resin material used in the preparation of the concentrates. At each time period, 100 μml of beverage was diluted with 10 ml of methanol and injected into the LCMSMS for analysis.

## Cc1c(C)c2c(c(C)c1O)CC[C@@](C)(CCC[C@H](C)CCC[C@H](C)CCCC(C)C)O2 [α-Tocopherol]
[1]; day 0
  Stability in Powder Concentrate (content by LCMSMS): 4.85 mg/g powder
[1]; day 1
  Stability in Powder Concentrate (content by LCMSMS): 4.89 mg/g powder
[1]; day 2
  Stability in Powder Concentrate (content by LCMSMS): 4.79 mg/g powder
[1]; day 3
  Stability in Powder Concentrate (content by LCMSMS): 4.69 mg/g powder
[1]; day 5
  Stability in Powder Concentrate (content by LCMSMS): 4.99 mg/g powder
[1]; day 8
  Stability in Powder Concentrate (content by LCMSMS): 4.69 mg/g powder
[1]; day 9
  Stability in Powder Concentrate (content by LCMSMS): 4.75 mg/g powder
[1]; day 10
  Stability in Powder Concentrate (content by LCMSMS): 4.77 mg/g powder
[1]; day 11
  Stability in Powder Concentrate (content by LCMSMS): 5.04 mg/g powder
[1]; day 12
  Stability in Powder Concentrate (content by LCMSMS): 5.01 mg/g powder
[1]; day 15
  Stability in Powder Concentrate (content by LCMSMS): 5.07 mg/g powder
[1]; day 16
  Stability in Powder Concentrate (content by LCMSMS): 4.96 mg/g powder
[1]; day 17
  Stability in Powder Concentrate (content by LCMSMS): 4.94 mg/g powder
[1]; day 18
  Stability in Powder Concentrate (content by LCMSMS): 4.77 mg/g powder
[1]; day 19
  Stability in Powder Concentrate (content by LCMSMS): 5.04 mg/g powder
[1]; day 22
  Stability in Powder Concentrate (content by LCMSMS): 4.94 mg/g powder
[1]; day 23
  Stability in Powder Concentrate (content by LCMSMS): 4.91 mg/g powder
[1]; day 24
  Stability in Powder Concentrate (content by LCMSMS): 5.00 mg/g powder
[1]; day 25
  Stability in Powder Concentrate (content by LCMSMS): 5.06 mg/g powder
[1]; day 26
  Stability in Powder Concentrate (content by LCMSMS): 4.84 mg/g powder
[1]; day 29
  Stability in Powder Concentrate (content by LCMSMS): 4.85 mg/g powder
[1]; day 30
  Stability in Powder Concentrate (content by LCMSMS): 4.83 mg/g powder
[1]; day 60
  Stability in Powder Concentrate (content by LCMSMS): 4.91 mg/g powder
[1]; day 90
  Stability in Powder Concentrate (content by LCMSMS): 4.96 mg/g powder
[1]; day 120
  Stability in Powder Concentrate (content by LCMSMS): 4.93 mg/g powder
[1]; day 150
  Stability in Powder Concentrate (content by LCMSMS): 4.69 mg/g powder
[1]; day 180
  Stability in Powder Concentrate (content by LCMSMS): 4.70 mg/g powder
[1]; day 210
  Stability in Powder Concentrate (content by LCMSMS): 4.84 mg/g powder
[1]; day 240
  Stability in Powder Concentrate (content by LCMSMS): 5.03 mg/g powder
[1]; day 270
  Stability in Powder Concentrate (content by LCMSMS): 4.78 mg/g powder
[1]; day 300
  Stability in Powder Concentrate (content by LCMSMS): 4.81 mg/g powder
[1]; day 330
  Stability in Powder Concentrate (content by LCMSMS): 4.81 mg/g powder
[1]; day 360
  Stability in Powder Concentrate (content by LCMSMS): 4.83 mg/g powder
[1]; day 390
  Stability in Powder Concentrate (content by LCMSMS): 4.91 mg/g powder
[1]; day 420
  Stability in Powder Concentrate (content by LCMSMS): 4.69 mg/g powder
[1]; day 450
  Stability in Powder Concentrate (content by LCMSMS): 5.00 mg/g powder
[1]; day 480
  Stability in Powder Concentrate (content by LCMSMS): 4.98 mg/g powder
[1]; day 510
  Stability in Powder Concentrate (content by LCMSMS): 5.02 mg/g powder
[1]; day 540
  Stability in Powder Concentrate (content by LCMSMS): 5.03 mg/g powder
[1]; day 570
  Stability in Powder Concentrate (content by LCMSMS): 4.72 mg/g powder
[2]; 8° C., 0 days
  Stability of Vitamin Es in AB Red: 25.3 µg/mL
[2]; 8° C., 1 days
  Stability of Vitamin Es in AB Red: 25.2 µg/mL
[2]; 8° C., 2 days
  Stability of Vitamin Es in AB Red: 24.9 µg/mL
[2]; 8° C., 3 days
  Stability of Vitamin Es in AB Red: 25.3 µg/mL
[2]; 8° C., 5 days
  Stability of Vitamin Es in AB Red: 24.2 µg/mL
[2]; 8° C., 8 days
  Stability of Vitamin Es in AB Red: 23.7 µg/mL
[2]; 8° C., 9 days
  Stability of Vitamin Es in AB Red: 24.6 µg/mL
[2]; 8° C., 10 days
  Stability of Vitamin Es in AB Red: 24.9 µg/mL
[2]; 8° C., 11 days
  Stability of Vitamin Es in AB Red: 23.9 µg/mL
[2]; 8° C., 12 days
  Stability of Vitamin Es in AB Red: 24.4 µg/mL
[2]; 8° C., 15 days
  Stability of Vitamin Es in AB Red: 25.6 µg/mL
[2]; 8° C., 16 days
  Stability of Vitamin Es in AB Red: 24.5 µg/mL
[2]; 8° C., 17 days
  Stability of Vitamin Es in AB Red: 23.6 µg/mL
[2]; 8° C., 18 days
  Stability of Vitamin Es in AB Red: 24.1 µg/mL
[2]; 8° C., 19 days
  Stability of Vitamin Es in AB Red: 24.0 µg/mL
[2]; 8° C., 22 days
  Stability of Vitamin Es in AB Red: 25.0 µg/mL
[2]; 8° C., 23 days
  Stability of Vitamin Es in AB Red: 23.2 µg/mL
[2]; 8° C., 24 days
  Stability of Vitamin Es in AB Red: 24.3 µg/mL
[2]; 8° C., 25 days
  Stability of Vitamin Es in AB Red: 23.6 µg/mL
[2]; 8° C., 26 days
  Stability of Vitamin Es in AB Red: 25.2 µg/mL
[2]; 8° C., 29 days
  Stability of Vitamin Es in AB Red: 23.5 µg/mL
[2]; 8° C., 30 days
  Stability of Vitamin Es in AB Red: 24.2 µg/mL
[2]; 8° C., 60 days
  Stability of Vitamin Es in AB Red: 24.2 µg/mL
[2]; 8° C., 90 days
  Stability of Vitamin Es in AB Red: 23.1 µg/mL
[2]; 8° C., 120 days
  Stability of Vitamin Es in AB Red: 25.2 µg/mL
[2]; 8° C., 150 days
  Stability of Vitamin Es in AB Red: 25.4 µg/mL
[2]; 8° C., 180 days
  Stability of Vitamin Es in AB Red: 23.6 µg/mL
[2]; 8° C., 210 days
  Stability of Vitamin Es in AB Red: 23.5 µg/mL
[2]; 8° C., 240 days
  Stability of Vitamin Es in AB Red: 23.6 µg/mL
[2]; 8° C., 270 days
  Stability of Vitamin Es in AB Red: 23.6 µg/mL
[2]; 8° C., 300 days
  Stability of Vitamin Es in AB Red: 23.1 µg/mL
[2]; 8° C., 330 days
  Stability of Vitamin Es in AB Red: 22.9 µg/mL
[2]; 8° C., 390 days
  Stability of Vitamin Es in AB Red: 23.1 µg/mL
[2]; 8° C., 420 days
  Stability of Vitamin Es in AB Red: 22.3 µg/mL
[2]; 8° C., 450 days
  Stability of Vitamin Es in AB Red: 22.7 µg/mL
[2]; 8° C., 480 days
  Stability of Vitamin Es in AB Red: 21.8 µg/mL
[2]; 8° C., 510 days
  Stability of Vitamin Es in AB Red: 22.0 µg/mL
[2]; 8° C., 540 days
  Stability of Vitamin Es in AB Red: 21.8 µg/mL
[2]; 8° C., 570 days
  Stability of Vitamin Es in AB Red: 21.5 µg/mL
[2]; 21-25° C., 0 days
  Stability of Vitamin Es in AB Red: 25.3 µg/mL
[2]; 21-25° C., 1 days
  Stability of Vitamin Es in AB Red: 24.4 µg/mL
[2]; 21-25° C., 2 days
  Stability of Vitamin Es in AB Red: 24.1 µg/mL
[2]; 21-25° C., 3 days
  Stability of Vitamin Es in AB Red: 23.8 µg/mL
[2]; 21-25° C., 5 days
  Stability of Vitamin Es in AB Red: 22.9 µg/mL
[2]; 21-25° C., 8 days
  Stability of Vitamin Es in AB Red: 24.5 µg/mL
[2]; 21-25° C., 9 days
  Stability of Vitamin Es in AB Red: 23.3 µg/mL
[2]; 21-25° C., 10 days
  Stability of Vitamin Es in AB Red: 23.0 µg/mL
[2]; 21-25° C., 11 days
  Stability of Vitamin Es in AB Red: 24.4 µg/mL
[2]; 21-25° C., 12 days
  Stability of Vitamin Es in AB Red: 23.4 µg/mL
[2]; 21-25° C., 15 days
  Stability of Vitamin Es in AB Red: 24.8 µg/mL
[2]; 21-25° C., 16 days
  Stability of Vitamin Es in AB Red: 25.1 µg/mL
[2]; 21-25° C., 17 days
  Stability of Vitamin Es in AB Red: 24.4 µg/mL
[2]; 21-25° C., 18 days
  Stability of Vitamin Es in AB Red: 24.9 µg/mL
[2]; 21-25° C., 19 days
  Stability of Vitamin Es in AB Red: 25.4 µg/mL
[2]; 21-25° C., 22 days
  Stability of Vitamin Es in AB Red: 25.4 µg/mL
[2]; 21-25° C., 23 days
  Stability of Vitamin Es in AB Red: 24.6 µg/mL
[2]; 21-25° C., 24 days
  Stability of Vitamin Es in AB Red: 23.5 µg/mL
[2]; 21-25° C., 25 days
  Stability of Vitamin Es in AB Red: 25.5 µg/mL
[2]; 21-25° C., 26 days
  Stability of Vitamin Es in AB Red: 24.3 µg/mL
[2]; 21-25° C., 29 days
  Stability of Vitamin Es in AB Red: 24.4 µg/mL
[2]; 21-25° C., 30 days
  Stability of Vitamin Es in AB Red: 24.6 µg/mL
[2]; 21-25° C., 60 days
  Stability of Vitamin Es in AB Red: 24.4 µg/mL
[2]; 21-25° C., 90 days
  Stability of Vitamin Es in AB Red: 24.3 µg/mL
[2]; 21-25° C., 120 days
  Stability of Vitamin Es in AB Red: 23.7 µg/mL
[2]; 21-25° C., 150 days
  Stability of Vitamin Es in AB Red: 23.4 µg/mL
[2]; 21-25° C., 180 days
  Stability of Vitamin Es in AB Red: 23.3 µg/mL
[2]; 21-25° C., 210 days
  Stability of Vitamin Es in AB Red: 22.7 µg/mL
[2]; 21-25° C., 240 days
  Stability of Vitamin Es in AB Red: 23.1 µg/mL
[2]; 21-25° C., 270 days
  Stability of Vitamin Es in AB Red: 23.1 µg/mL
[2]; 21-25° C., 300 days
  Stability of Vitamin Es in AB Red: 23.5 µg/mL
[2]; 21-25° C., 330 days
  Stability of Vitamin Es in AB Red: 22.6 µg/mL
[2]; 21-25° C., 390 days
  Stability of Vitamin Es in AB Red: 22.7 µg/mL
[2]; 21-25° C., 420 days
  Stability of Vitamin Es in AB Red: 22.5 µg/mL
[2]; 21-25° C., 450 days
  Stability of Vitamin Es in AB Red: 22.3 µg/mL
[2]; 21-25° C., 480 days
  Stability of Vitamin Es in AB Red: 21.6 µg/mL
[2]; 21-25° C., 510 days
  Stability of Vitamin Es in AB Red: 21.4 µg/mL
[2]; 21-25° C., 540 days
  Stability of Vitamin Es in AB Red: 21.0 µg/mL
[2]; 21-25° C., 570 days
  Stability of Vitamin Es in AB Red: 21.4 µg/mL
